Earlier results on two compounds are cited in US20070141140A1, “Semi-solid formulations for immediate release intended for the oral administration of drugs” (PHARMACIA ITALISA S.P.A., priority 2003, published 2007).

For this data set the following is noted: for weight concentration in the semi-solid matrix above which dissolution velocity drops significantly: polyethylene glycol or Gelucire 44/14 matrix.

Each structure is given as a SMILES string. Some results are limits rather than exact numbers.

For the compound `Nc1nc(N)c2nc(-c3ccccc3)c(N)nc2n1` [Triamterene], the “weight concentration in the semi-solid matrix above which dissolution velocity drops significantly” value is recorded as “exceeding 5%”. Also, where the note is “PEG 1500 matrix, 10% by weight Triamterene, 2 or 5% polysorbate 80 (Tween 80), in an hour”, the active ingredient released entry is “at least 80%”.
In the case of `CN1C(=O)C(O)N=C(c2ccccc2)c2cc(Cl)ccc21` (stereo not drawn) [temazepam, Temazepam], the “weight concentration in the semi-solid matrix above which dissolution velocity drops significantly” value is on record as above 15%.
